For one experiment, the system named is allodynia in CCI mice. The conditions noted are these: for effect on allodynia (hindpaw absolute threshold): male CCI mice, i.v. injection day 10 post surgery, identical ipsilateral and contralateral. As for the experimental part:
The current report analyzed adult (10-16 week old) male C57BL/6 mice (wildtype; FFID: IMSR_JAX:000664) purchased from Jackson Laboratories (Bar Harbor, Me., USA). Mice were maintained on a standard 12:12 light/dark cycle (lights on from 0600 hours to 1800 hours) in a temperature controlled environment (23°±2° C.) for the duration of the study. Additionally, mice were housed in groups of 4-5 mice/cage, of which all mice were routinely monitored by the animal care staff under the direction of the institutional veterinarian, fed standard rodent chow and water ad libitum, with cages and bedding changed every 7 days. All procedures were approved by the Institutional Animal Care and Use Committee (IACUC) of the University of New Mexico Health Sciences Center, conducted in accordance to the NIH Guidelines for the Care and Use of Laboratory Animals, and closely adhered to guidelines from the International Association for the Study of Pain for the use of animals in research (Foundation for Biomedical Research, The Biomedical Investigator's Handbook for Researchers Using Animal Models. Washington, D.C.: FBR, 1987. WWW: http://www.fbresearch.org/).
This study utilized a modified version of a well-established rat peripheral nerve injury model in which pathological sensitivity to light touch, clinically termed allodynia, is induced through a chronic constriction injury (CCI) (Bennett and Xie 1988). […] Under isoflurane anesthesia (1.5-2.0% volume in oxygen, 2.0 l/min), the dorsal left thigh was shaved and cleaned using 70% Ethanol (EtOH) that was air dried prior to surgery. Utilizing a small incision over the posterior thigh, remaining […] below the femur bone, from hip bone to the patella, the muscle fascia of the mouse was exposed. Using aseptic procedures, a blunt dissection was performed to carefully isolate the sciatic nerve by separating the overlying muscular fascia. Sterile plastic probes were then used to locate and lift the sciatic nerve from its pocket within the muscle tissue. Mice were then subjected to unilateral loose ligation of the sciatic nerve with three 5-0 chromic gut sutures (Ethicon; Somerville, N.J., Cat #634G) which were snugly tied around the sciatic nerve (avoiding pinching) proximal to the trifurcation with 1.5 mm spacing between sutures. Throughout the duration of the surgery, sterile 0.9% isotonic saline (Hospira; Cat #NDC 0409-4888-03) was irrigated over the sciatic nerve to prevent dehydration. Sham surgery followed the same CCI surgical procedure identically but without ligation. Upon ligation, the sciatic nerve was gently placed back into its correct anatomical position using the sterile plastic probes, and the overlying muscle fascia was stitched closed using one 4-0 sterile silk sutures (Ethicon; Somerville, N.J., Cat #83G). Wound clips (Kent Scientific Corp.; Cat #INS750344) were then utilized to seal the incision closed at which point the surgical procedure was complete. […] Body weight was monitored prior to and after surgery.
Upon a 7-14 day acclimation to the testing environment, mice were subjected to a habituation period. The habituation period included placing the mice atop a testing rack within the first 4 hours of the light cycle (lights on from 0600 hours to 1800 hours) in a sound and temperature (23°±2° C.) controlled environment, allowing full access to the plantar hindpaw. Mice were exposed to four separate habitation periods for approximately 45 min/day.

Experiment [1] relates to TLR4-mediated IL-1β release in THP-1 cells. To be noted: for IL-1β release in the presence of LPS stimulation / basal cellular levels of IL-1β: THP-1 cells; for basal cellular levels of IL-1β: pramipexole alone, no LPS. As for the experimental part: The assay was performed according to the manufacturer's instructions.
Where [2] appears, read: CCI mice, i.v. day 10 post surgery.

The structures appear in SMILES notation. Where two headings read alike, the source gives them in different places.

Turning to `CCCN[C@H]1CCc2nc(N)sc2C1` [Pramipexole, (6S)-6-N-propyl-4,5,6,7-tetrahydro-1,3-benzothiazole-2,6-diamine], the “efficacy on hindpaw withdraw thresholds, hours 24-72 post-injection” value with allodynia in CCI mice (CCI mice, i.v. 0.5 μg) is given as “complete dissipation in the efficacy”; in the experiment with allodynia in CCI mice (CCI mice, i.v. 5 μg) it was “complete dissipation in the efficacy”. The “time post-injection by which mice returned to allodynia” value in the experiment with allodynia in CCI mice (CCI mice, i.v. 0.5 μg) was no more than 24 h; in the experiment with allodynia in CCI mice (CCI mice, i.v. 5 μg), no more than 24 h. Further, the “time to complete reversal from allodynia” value was no more than 2 h in the experiment on allodynia in CCI mice (CCI mice, i.v. 0.5 μg, day 10 post-surgery); no more than 2 h in the experiment on allodynia in CCI mice (CCI mice, i.v. 5 μg, day 10 post-surgery); no more than 1 h in the experiment on allodynia in CCI mice (CCI mice, i.v. day 10 post surgery, dose not given in FIG. 1 legend). Besides, the duration of efficacy entry in the experiment with allodynia in CCI mice (setting [2]) is “up to 2 hours”. In addition, the “time of maximal efficacy post-injection” value with allodynia in CCI mice (setting [2]) came to 2 h. Moreover, the “effect on allodynia (hindpaw absolute threshold)” value in the experiment on allodynia in CCI mice is “completely reversed from allodynia”; in the experiment on allodynia in CCI mice (listed as pramipexole) it was “completely abolishes allodynia”. In addition, the “IL-1β release in the presence of LPS stimulation” value in experiment [1] (5 pg pramipexole plus LPS) and in experiment [1] (500 pg pramipexole plus LPS) was “significantly blunts” throughout. Also, the “basal cellular levels of IL-1β” value in experiment [1] (5 pg) and in experiment [1] (500 pg) was “does not significantly alter” each time. The TLR4-IL-1b activation pathway entry in experiment [1] (cell-based assay using human THP-1 cells) is on record as “inhibits the TLR4-IL-1b activation pathway”.

For the origin of these results see patent publication US20200121651A1, “Pramipexole for Use in the Treatment of Pain” (STC.UNM, priority 2018, published 2020).
